This note sets out measurements from patent publication US20230017045A1, “PYRIDINE AND PYRIMIDINE CARBOXYLATE HERBICIDES AND METHODS OF USE THEREOF” (Dow AgroSciences LLC, priority 2017, published 2023).

The structures appear in SMILES notation. Read-outs that look alike come from different tables or passages of the source.

The subject of the assay is test plant species. The assay is described as follows: Post-emergent herbicidal activity test (greenhouse, foliar spray, visual growth reduction). It is filed as in vivo. Conditions: post-emergence, 336 h, 140 g ai/ha. In outline: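 Seedlings were raised 7-21 d in a greenhouse under a 15 h photoperiod until the first or second true leaf. Each compound, dissolved in acetone:DMSO 97:3 and diluted into a surfactant-containing spray mixture, was then applied at 187 L/ha. Plants were subirrigated, and growth reduction was scored visually at 14 d.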

The mark [1] stands for this setting: ECHCG: barnyardgrass (Echinochloa crus-galli), 14 days after application, read-out: Visual Growth Reduction (%) 14 Days After Application, ECHCG.
The mark [2] stands for this setting: IPOHE: ivy-leaf morning glory (Ipomoea hederacea), 14 days after application, read-out: Visual Growth Reduction (%) 14 Days After Application, IPOHE.
Where [3] appears, read: KCHSC: kochia (Bassia scoparia), 14 days after application, read-out: Visual Growth Reduction (%) 14 Days After Application, KCHSC.
Where [4] appears, read: ORYSA: rice (Oryza sativa), 14 days after application, read-out: Visual Growth Reduction (%) 14 Days After Application, ORYSA.
The mark [5] stands for this setting: SETFA: giant foxtail (Setaria faberi), 14 days after application, read-out: Visual Growth Reduction (%) 14 Days After Application, SETFA.
[6] abbreviates: SORVU: grain sorghum (Sorghum vulgare), 14 days after application, read-out: Visual Growth Reduction (%) 14 Days After Application, SORVU.
[7] abbreviates: STEME: common chickweed (Stellaria media), 14 days after application, read-out: Visual Growth Reduction (%) 14 Days After Application, STEME.
[8] abbreviates: TRZAS: wheat, spring (Triticum aestivum), 14 days after application, read-out: Visual Growth Reduction (%) 14 Days After Application, TRZAS.
Setting [9] is: blackgrass (Alopecurus myosuroides), 14 Days After Application, read-out: Visual Growth Reduction (%) ALOMY.
Setting [10] is: canada thistle (Cirsium arvense), 14 Days After Application, read-out: Visual Growth Reduction (%) CIRAR.
Setting [11] is: crabgrass (Digitaria sanguinalis), 14 Days After Application, read-out: Visual Growth Reduction (%) DIGSA.
[12] abbreviates: lambsquarters (Chenopodium album), 14 Days After Application, read-out: Visual Growth Reduction (%) CHEAL.
[13] abbreviates: redroot pigweed (Amaranthus retroflexus), 14 Days After Application, read-out: Visual Growth Reduction (%) AMARE.
[14] abbreviates: wild oat (Avena fatua), 14 Days After Application, read-out: Visual Growth Reduction (%) AVEFA.
Where [15] appears, read: yellow nutsedge (Cyperus esculentus), 14 Days After Application, read-out: Visual Growth Reduction (%) CYPES.

Regarding `COC(=O)c1nc(-c2ccc(Cl)c(C(F)F)c2F)ccc1Cl` [F273, Methyl 3-chloro-6-(4-chloro-3-(difluoromethyl)-2-fluorophenyl) picolinate], the pest or weed control at 140 g/ha under setting [1] lay in the range of 0 to 29%; the pest or weed control at 140 g/ha under setting [2] is 75 to 84%; the pest or weed control at 140 g/ha under setting [3] is 0 to 29%; the pest or weed control at 140 g/ha under setting [4] lay within 0 to 29%; the pest or weed control at 140 g/ha under setting [5] was in the range of 0 to 29%; the pest or weed control at 140 g/ha under setting [6] was 75 to 84%. In addition, the pest or weed control at 140 g/ha is, setting by setting: under setting [7], 0 to 29%; under setting [8], 0 to 29%; under setting [9], 0 to 29%; under setting [10], 30 to 44%; under setting [11], 60 to 74%; under setting [12], 75 to 84%. The pest or weed control at 140 g/ha reads like this: under setting [13], 0 to 29%; under setting [14], 0 to 29%; under setting [15], 0 to 29%.
Turning to `COC(=O)c1nc(-c2ccc(Cl)c(CF)c2F)ccc1Cl` [F274, Methyl 3-chloro-6-(4-chloro-2-fluoro-3-(fluoromethyl)phenyl) picolinate], the pest or weed control at 140 g/ha is, setting by setting: under setting [1], 0 to 29%; under setting [2], 0 to 29%; under setting [3], 0 to 29%; under setting [4], 0 to 29%; under setting [5], 0 to 29%; under setting [6], 0 to 29%. The pest or weed control at 140 g/ha reads like this: under setting [7], 0 to 29%; under setting [8], 0 to 29%; under setting [9], 0 to 29%; under setting [10], 60 to 74%; under setting [11], 0 to 29%; under setting [12], 0 to 29%. Moreover, the pest or weed control at 140 g/ha was in the range of 0 to 29% under setting [13], 0 to 29% under setting [14] and 0 to 29% under setting [15].
For the molecule `COC(=O)c1nc(-c2ccc(C(F)F)cc2OC)c(F)cc1Cl` [F275, Methyl 3-chloro-6-(4-(difluoromethyl)-2-methoxyphenyl)-5-fluoropicolinate], the pest or weed control at 140 g/ha under setting [1] is 0 to 29%; the pest or weed control at 140 g/ha under setting [2] was 95 to 100%; the pest or weed control at 140 g/ha under setting [3] is 85 to 94%; the pest or weed control at 140 g/ha under setting [4] lay in the range of 0 to 29%; the pest or weed control at 140 g/ha under setting [5] lay in the range of 45 to 59%; the pest or weed control at 140 g/ha under setting [6] lay in the range of 45 to 59%. Moreover, the pest or weed control at 140 g/ha runs as follows: under setting [7], 0 to 29%; under setting [8], 0 to 29%; under setting [9], 0 to 29%; under setting [10], 95 to 100%; under setting [11], 0 to 29%; under setting [12], 85 to 94%. For the same molecule, the pest or weed control at 140 g/ha lay in the range of 60 to 74% under setting [13], 0 to 29% under setting [14] and 0 to 29% under setting [15].
For `CCOc1c(Cl)ccc(-c2ccc(Cl)c(C(=O)OC)n2)c1Cl` [F276, Methyl 3-chloro-6-(2,4-dichloro-3-ethoxyphenyl) picolinate], the pest or weed control at 140 g/ha reads like this: under setting [1], 0 to 29%; under setting [2], 0 to 29%; under setting [3], 0 to 29%; under setting [4], 0 to 29%; under setting [5], 0 to 29%; under setting [6], 0 to 29%. In addition, the pest or weed control at 140 g/ha runs as follows: under setting [7], 0 to 29%; under setting [8], 0 to 29%; under setting [9], 0 to 29%; under setting [10], 0 to 29%; under setting [11], 0 to 29%; under setting [12], 0 to 29%. For the same molecule, the pest or weed control at 140 g/ha under setting [13] was in the range of 0 to 29%, the pest or weed control at 140 g/ha under setting [14] lay within 0 to 29% and the pest or weed control at 140 g/ha under setting [15] was 0 to 29%.
Turning to `COC(=O)c1nc(-c2cccc(Cl)c2F)ccc1Cl` [F277, Methyl 3-chloro-6-(3-chloro-2-fluorophenyl) picolinate], the pest or weed control at 140 g/ha lay in the range of 0 to 29% under setting [1]; 0 to 29% under setting [2]; 0 to 29% under setting [3]; 0 to 29% under setting [4]; 0 to 29% under setting [5]; 0 to 29% under setting [6]. Moreover, the pest or weed control at 140 g/ha runs as follows: under setting [7], 0 to 29%; under setting [8], 0 to 29%; under setting [9], 0 to 29%; under setting [10], 0 to 29%; under setting [11], 0 to 29%; under setting [12], 0 to 29%. Besides, the pest or weed control at 140 g/ha fell in the range of 0 to 29% under setting [13], 0 to 29% under setting [14] and 0 to 29% under setting [15].
For the molecule `COC(=O)c1nc(-c2cc(F)c(Cl)c(OC)c2)ccc1Cl` [F278, Methyl 3-chloro-6-(4-chloro-3-fluoro-5-methoxyphenyl) picolinate], the pest or weed control at 140 g/ha is 0 to 29% under setting [1]; 0 to 29% under setting [2]; 0 to 29% under setting [3]; 0 to 29% under setting [4]; 0 to 29% under setting [5]; 0 to 29% under setting [6]. In addition, the pest or weed control at 140 g/ha under setting [7] lay within 0 to 29%; the pest or weed control at 140 g/ha under setting [8] was in the range of 0 to 29%; the pest or weed control at 140 g/ha under setting [9] fell in the range of 0 to 29%; the pest or weed control at 140 g/ha under setting [10] was in the range of 0 to 29%; the pest or weed control at 140 g/ha under setting [11] lay in the range of 0 to 29%; the pest or weed control at 140 g/ha under setting [12] was in the range of 0 to 29%. The pest or weed control at 140 g/ha is 0 to 29% under setting [13], 0 to 29% under setting [14] and 0 to 29% under setting [15].
As for `CCCCOc1c(Cl)ccc(-c2ccc(Cl)c(C(=O)OC)n2)c1F` [F279, Methyl 6-(3-butoxy-4-chloro-2-fluorophenyl)-3-chloropicolinate], the pest or weed control at 140 g/ha reads like this: under setting [1], 0 to 29%; under setting [2], 0 to 29%; under setting [3], 0 to 29%; under setting [4], 0 to 29%; under setting [5], 0 to 29%; under setting [6], 0 to 29%. Further, the pest or weed control at 140 g/ha runs as follows: under setting [7], 0 to 29%; under setting [8], 0 to 29%; under setting [9], 0 to 29%; under setting [10], 0 to 29%; under setting [11], 0 to 29%; under setting [12], 0 to 29%. The pest or weed control at 140 g/ha under setting [13] is 0 to 29%, the pest or weed control at 140 g/ha under setting [14] was in the range of 0 to 29% and the pest or weed control at 140 g/ha under setting [15] lay in the range of 0 to 29%.
With `CCCCOC(=O)c1nc(-c2ccc(Cl)c(OC)c2F)ccc1Cl` [F280, Butyl 3-chloro-6-(4-chloro-2-fluoro-3-methoxyphenyl) picolinate], the pest or weed control at 140 g/ha reads like this: under setting [1], 0 to 29%; under setting [2], 30 to 44%; under setting [3], 60 to 74%; under setting [4], 0 to 29%; under setting [5], 0 to 29%; under setting [6], 0 to 29%. Moreover, the pest or weed control at 140 g/ha under setting [7] was 0 to 29%; the pest or weed control at 140 g/ha under setting [8] lay within 0 to 29%; the pest or weed control at 140 g/ha under setting [9] lay within 0 to 29%; the pest or weed control at 140 g/ha under setting [10] was in the range of 30 to 44%; the pest or weed control at 140 g/ha under setting [11] is 0 to 29%; the pest or weed control at 140 g/ha under setting [12] was 85 to 94%. Moreover, the pest or weed control at 140 g/ha was 30 to 44% under setting [13], 0 to 29% under setting [14] and 60 to 74% under setting [15].
With `COC(=O)c1nc(-c2ccc(Cl)c(C(F)F)c2Cl)ccc1Cl` [F281, Methyl 3-chloro-6-(2,4-dichloro-3-(difluoromethyl)phenyl)picolinate], the pest or weed control at 140 g/ha by setting is: under setting [1], 0 to 29%; under setting [2], 85 to 94%; under setting [3], 0 to 29%; under setting [4], 0 to 29%; under setting [5], 30 to 44%; under setting [6], 85 to 94%. In addition, the pest or weed control at 140 g/ha under setting [7] fell in the range of 0 to 29%; the pest or weed control at 140 g/ha under setting [8] is 0 to 29%; the pest or weed control at 140 g/ha under setting [9] fell in the range of 0 to 29%; the pest or weed control at 140 g/ha under setting [10] lay in the range of 0 to 29%; the pest or weed control at 140 g/ha under setting [11] was 0 to 29%; the pest or weed control at 140 g/ha under setting [12] lay in the range of 85 to 94%. Also, the pest or weed control at 140 g/ha is, setting by setting: under setting [13], 75 to 84%; under setting [14], 0 to 29%; under setting [15], 0 to 29%.
